Experimental data taken from paper PMC9898036, “VIP152 is a selective CDK9 inhibitor with pre-clinical in vitro and in vivo efficacy in chronic lymphocytic leukemia” (Leukemia, 2022).
Where two headings read alike, the source gives them in different places.

What was measured:
Test in all cases: DiscoverX KINOMEscan kinase profiling (468 assays)
Format in all cases: binding
[1] = target: human kinome (Homo sapiens, UniProt P42336, E545A); details: read-out: Percent Control
Procedure, shortened: (§1)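 VIP152 was run in DMSO, alongside a DMSO control. Readout was qPCR of DNA-tagged kinase still bound to bead-immobilized biotinylated kinase ligands after compound competition.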

[2] = target: human kinome (Homo sapiens, UniProt P49759); details: CLK1; 100 nM; read-out: Percent Control
Procedure, shortened: as §1

[3] = target: human kinome (Homo sapiens, UniProt O75582); details: compound concentration 1000 nM, read-out: Percent Control
Procedure, shortened: as §1

[4] = target: human kinome (Homo sapiens, UniProt P16591); details: FER; 100 nM; read-out: Percent Control
Procedure, shortened: as §1

[5] = target: human kinome (Homo sapiens, UniProt P43405); details: kinase SYK (Entrez SYK); compound concentration 1000 nM; read-out: Percent Control
Procedure, shortened: as §1

[6] = target: human kinome (Homo sapiens, UniProt Q9UHD2); details: kinase TBK1 (Entrez TBK1); compound concentration 1000 nM; read-out: Percent Control
Procedure, shortened: as §1

[7] = target: human kinome (Homo sapiens, UniProt Q9BVS4); details: kinase RIOK2 (Entrez RIOK2); compound concentration 1000 nM; read-out: Percent Control
Procedure, shortened: as §1

[8] = target: human kinome (Homo sapiens, UniProt P15735); details: read-out: Percent Control
Procedure, shortened: as §1

[9] = target: human kinome (Homo sapiens, UniProt Q9BYP7); details: kinase WNK3 (Entrez WNK3); compound concentration 1000 nM; read-out: Percent Control
Procedure, shortened: as §1

[10] = target: human kinome (Homo sapiens, UniProt P06241); details: FYN; 100 nM; read-out: Percent Control
Procedure, shortened: as §1

[11] = target: human kinome (Homo sapiens, UniProt O15075); details: DCAMKL1 (Entrez DCLK1); 100 nM; read-out: Percent Control
Procedure, shortened: as §1

[12] = target: human kinome (Homo sapiens, UniProt P48729); details: CSNK1A1; 100 nM; read-out: Percent Control
Procedure, shortened: as §1

[13] = target: human kinome (Homo sapiens, UniProt Q9NRH2); details: kinase SNRK (Entrez SNRK); compound concentration 1000 nM; read-out: Percent Control
Procedure, shortened: as §1

[14] = target: human kinome (Homo sapiens, UniProt P35590); details: kinase TIE1 (Entrez TIE1); compound concentration 1000 nM; read-out: Percent Control
Procedure, shortened: as §1

[15] = target: human kinome (Homo sapiens, UniProt P33981); details: kinase TTK (Entrez TTK); compound concentration 1000 nM; read-out: Percent Control
Procedure, shortened: as §1

[16] = target: human kinome (Homo sapiens, UniProt P29320); details: EPHA3; 100 nM; read-out: Percent Control
Procedure, shortened: as §1

[17] = target: human kinome (Homo sapiens, UniProt Q86YV6); details: read-out: Percent Control
Procedure, shortened: as §1

[18] = target: human kinome (Homo sapiens, UniProt Q92918); details: HPK1 (Entrez MAP4K1); 100 nM; read-out: Percent Control
Procedure, shortened: as §1

[19] = target: human kinome (Homo sapiens, UniProt Q15418); details: compound concentration 1000 nM, read-out: Percent Control
Procedure, shortened: as §1

[20] = target: human kinome (Homo sapiens, UniProt P09769); details: FGR; 100 nM; read-out: Percent Control
Procedure, shortened: as §1

[21] = target: human kinome (Homo sapiens, UniProt Q9UBE8); details: read-out: Percent Control
Procedure, shortened: as §1

[22] = target: human kinome (Homo sapiens, UniProt P51813); details: BMX; 100 nM; read-out: Percent Control
Procedure, shortened: as §1

[23] = target: human kinome (Homo sapiens, UniProt P27037); details: ACVR2A; 100 nM; read-out: Percent Control
Procedure, shortened: as §1

[24] = target: human kinome (Homo sapiens, UniProt Q8N568); details: DCAMKL2 (Entrez DCLK2); 100 nM; read-out: Percent Control
Procedure, shortened: as §1

[25] = target: human kinome (Homo sapiens, UniProt Q6DT37); details: DMPK2 (Entrez CDC42BPG); 100 nM; read-out: Percent Control
Procedure, shortened: as §1

[26] = target: human kinome (Homo sapiens, UniProt O60285); details: ARK5 (Entrez NUAK1); 100 nM; read-out: Percent Control
Procedure, shortened: as §1

[27] = target: human kinome (Homo sapiens, UniProt O95835); details: LATS1; 100 nM; read-out: Percent Control
Procedure, shortened: as §1

[28] = target: human kinome (Homo sapiens, UniProt Q96PN8); details: kinase TSSK3 (Entrez TSSK3); compound concentration 1000 nM; read-out: Percent Control
Procedure, shortened: as §1

[29] = target: human kinome (Homo sapiens, UniProt P36888, D835Y); details: FLT3(D835Y); 100 nM; read-out: Percent Control
Procedure, shortened: as §1

Chain of human kinome (Homo sapiens, UniProt Q9UBE8) (Q9UBE8 whole entry): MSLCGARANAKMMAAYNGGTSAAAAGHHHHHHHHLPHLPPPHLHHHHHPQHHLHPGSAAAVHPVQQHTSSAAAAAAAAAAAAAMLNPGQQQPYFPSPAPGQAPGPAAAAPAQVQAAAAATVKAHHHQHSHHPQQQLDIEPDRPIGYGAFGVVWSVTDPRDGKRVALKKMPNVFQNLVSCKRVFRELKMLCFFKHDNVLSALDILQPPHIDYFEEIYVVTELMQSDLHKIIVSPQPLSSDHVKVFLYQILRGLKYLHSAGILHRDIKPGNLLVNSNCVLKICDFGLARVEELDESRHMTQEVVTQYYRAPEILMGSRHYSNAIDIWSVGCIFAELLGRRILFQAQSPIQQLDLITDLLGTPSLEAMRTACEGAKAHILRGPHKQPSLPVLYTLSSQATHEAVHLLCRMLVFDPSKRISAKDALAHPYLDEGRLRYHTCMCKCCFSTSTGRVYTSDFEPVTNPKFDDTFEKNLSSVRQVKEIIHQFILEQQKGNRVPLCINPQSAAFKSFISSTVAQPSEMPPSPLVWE
Chain of human kinome (Homo sapiens, UniProt P42336, E545A) (P42336 whole entry E545A): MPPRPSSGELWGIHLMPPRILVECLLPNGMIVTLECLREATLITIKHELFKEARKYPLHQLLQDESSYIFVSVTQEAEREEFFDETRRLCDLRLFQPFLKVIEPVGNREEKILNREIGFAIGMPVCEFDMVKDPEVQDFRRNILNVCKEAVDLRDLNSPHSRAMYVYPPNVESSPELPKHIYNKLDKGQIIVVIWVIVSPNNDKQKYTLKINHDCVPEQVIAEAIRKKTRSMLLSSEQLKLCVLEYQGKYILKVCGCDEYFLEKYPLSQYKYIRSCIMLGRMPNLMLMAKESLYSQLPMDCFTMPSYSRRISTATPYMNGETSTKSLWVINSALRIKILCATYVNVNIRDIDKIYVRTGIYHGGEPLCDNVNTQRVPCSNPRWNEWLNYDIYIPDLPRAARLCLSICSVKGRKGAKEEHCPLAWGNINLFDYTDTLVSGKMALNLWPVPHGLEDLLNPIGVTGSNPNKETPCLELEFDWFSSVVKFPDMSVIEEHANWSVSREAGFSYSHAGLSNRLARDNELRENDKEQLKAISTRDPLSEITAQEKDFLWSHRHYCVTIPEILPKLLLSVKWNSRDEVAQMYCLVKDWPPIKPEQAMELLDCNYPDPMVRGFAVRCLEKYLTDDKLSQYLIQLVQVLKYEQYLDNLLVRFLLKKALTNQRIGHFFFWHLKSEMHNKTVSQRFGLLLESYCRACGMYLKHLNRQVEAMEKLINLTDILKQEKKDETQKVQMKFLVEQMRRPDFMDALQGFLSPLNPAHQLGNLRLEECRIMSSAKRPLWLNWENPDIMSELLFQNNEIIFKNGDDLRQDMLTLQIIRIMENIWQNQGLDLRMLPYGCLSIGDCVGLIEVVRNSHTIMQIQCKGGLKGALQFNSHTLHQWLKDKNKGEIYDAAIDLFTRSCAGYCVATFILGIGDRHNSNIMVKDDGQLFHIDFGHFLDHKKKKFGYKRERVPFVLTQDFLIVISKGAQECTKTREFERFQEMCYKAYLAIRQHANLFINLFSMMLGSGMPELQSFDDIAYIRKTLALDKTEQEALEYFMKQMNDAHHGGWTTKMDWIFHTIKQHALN
Chain of human kinome (Homo sapiens, UniProt O75582) (O75582 whole entry): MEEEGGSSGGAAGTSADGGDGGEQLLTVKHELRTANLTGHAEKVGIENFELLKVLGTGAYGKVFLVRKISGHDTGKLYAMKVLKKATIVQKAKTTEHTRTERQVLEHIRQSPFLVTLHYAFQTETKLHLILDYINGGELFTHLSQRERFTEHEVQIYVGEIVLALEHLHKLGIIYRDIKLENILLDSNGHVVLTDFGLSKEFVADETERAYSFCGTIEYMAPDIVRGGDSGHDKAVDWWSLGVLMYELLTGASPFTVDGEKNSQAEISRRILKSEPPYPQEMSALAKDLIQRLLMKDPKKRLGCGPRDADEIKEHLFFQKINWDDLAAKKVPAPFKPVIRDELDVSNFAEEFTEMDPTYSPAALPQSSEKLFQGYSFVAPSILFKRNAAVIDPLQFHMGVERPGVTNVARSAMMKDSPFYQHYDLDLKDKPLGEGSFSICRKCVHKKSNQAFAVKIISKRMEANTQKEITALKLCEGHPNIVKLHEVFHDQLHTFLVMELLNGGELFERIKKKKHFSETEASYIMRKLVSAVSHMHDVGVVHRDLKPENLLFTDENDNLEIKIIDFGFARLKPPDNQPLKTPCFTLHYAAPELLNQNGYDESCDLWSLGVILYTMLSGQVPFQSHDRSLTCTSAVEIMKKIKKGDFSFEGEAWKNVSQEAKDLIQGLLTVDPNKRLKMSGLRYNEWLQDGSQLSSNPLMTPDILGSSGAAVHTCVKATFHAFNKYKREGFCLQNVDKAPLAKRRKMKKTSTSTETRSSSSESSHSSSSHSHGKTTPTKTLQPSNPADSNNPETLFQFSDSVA
Chain of human kinome (Homo sapiens, UniProt Q15418) (Q15418 whole entry): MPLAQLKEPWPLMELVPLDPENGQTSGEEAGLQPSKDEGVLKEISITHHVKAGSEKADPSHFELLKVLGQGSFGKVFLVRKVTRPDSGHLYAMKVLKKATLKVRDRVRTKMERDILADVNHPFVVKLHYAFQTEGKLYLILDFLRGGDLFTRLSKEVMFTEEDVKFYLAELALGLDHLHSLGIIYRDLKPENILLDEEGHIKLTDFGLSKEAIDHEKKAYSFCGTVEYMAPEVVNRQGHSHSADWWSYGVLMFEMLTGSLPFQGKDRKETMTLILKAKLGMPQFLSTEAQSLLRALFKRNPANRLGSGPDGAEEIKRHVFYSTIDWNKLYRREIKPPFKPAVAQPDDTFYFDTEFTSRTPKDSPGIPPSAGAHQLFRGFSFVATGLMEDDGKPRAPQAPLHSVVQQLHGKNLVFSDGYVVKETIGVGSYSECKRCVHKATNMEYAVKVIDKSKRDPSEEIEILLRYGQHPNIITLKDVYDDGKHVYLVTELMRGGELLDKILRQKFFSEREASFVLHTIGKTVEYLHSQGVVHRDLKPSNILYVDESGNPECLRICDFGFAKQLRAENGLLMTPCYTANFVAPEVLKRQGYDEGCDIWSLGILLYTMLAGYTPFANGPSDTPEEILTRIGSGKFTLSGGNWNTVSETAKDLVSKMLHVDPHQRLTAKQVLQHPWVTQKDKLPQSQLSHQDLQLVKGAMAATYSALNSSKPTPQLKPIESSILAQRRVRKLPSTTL
Chain of human kinome (Homo sapiens, UniProt P15735) (P15735 whole entry): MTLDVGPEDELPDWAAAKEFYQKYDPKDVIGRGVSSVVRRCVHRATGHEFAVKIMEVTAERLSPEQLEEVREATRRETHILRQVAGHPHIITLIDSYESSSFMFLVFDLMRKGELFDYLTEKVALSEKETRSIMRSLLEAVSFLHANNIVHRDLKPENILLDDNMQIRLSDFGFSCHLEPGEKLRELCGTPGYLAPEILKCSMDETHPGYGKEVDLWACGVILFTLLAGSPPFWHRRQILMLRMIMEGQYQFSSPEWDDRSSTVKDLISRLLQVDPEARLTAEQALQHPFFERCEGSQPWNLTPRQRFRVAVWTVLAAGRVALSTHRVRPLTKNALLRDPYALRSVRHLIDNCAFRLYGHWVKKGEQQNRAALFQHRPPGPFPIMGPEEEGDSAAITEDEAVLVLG
Chain of human kinome (Homo sapiens, UniProt Q86YV6) (Q86YV6 whole entry): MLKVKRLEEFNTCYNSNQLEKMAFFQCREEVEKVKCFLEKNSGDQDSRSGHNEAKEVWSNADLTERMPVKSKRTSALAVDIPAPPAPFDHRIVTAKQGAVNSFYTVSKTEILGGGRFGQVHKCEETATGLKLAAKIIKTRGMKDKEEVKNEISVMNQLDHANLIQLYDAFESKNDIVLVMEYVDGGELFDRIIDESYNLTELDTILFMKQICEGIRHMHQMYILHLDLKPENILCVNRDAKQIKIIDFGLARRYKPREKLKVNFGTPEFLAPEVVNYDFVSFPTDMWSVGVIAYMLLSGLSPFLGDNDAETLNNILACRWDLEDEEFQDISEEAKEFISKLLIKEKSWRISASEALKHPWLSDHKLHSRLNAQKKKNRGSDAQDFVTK
Chain of human kinome (Homo sapiens, UniProt Q92918) (Q92918 whole entry): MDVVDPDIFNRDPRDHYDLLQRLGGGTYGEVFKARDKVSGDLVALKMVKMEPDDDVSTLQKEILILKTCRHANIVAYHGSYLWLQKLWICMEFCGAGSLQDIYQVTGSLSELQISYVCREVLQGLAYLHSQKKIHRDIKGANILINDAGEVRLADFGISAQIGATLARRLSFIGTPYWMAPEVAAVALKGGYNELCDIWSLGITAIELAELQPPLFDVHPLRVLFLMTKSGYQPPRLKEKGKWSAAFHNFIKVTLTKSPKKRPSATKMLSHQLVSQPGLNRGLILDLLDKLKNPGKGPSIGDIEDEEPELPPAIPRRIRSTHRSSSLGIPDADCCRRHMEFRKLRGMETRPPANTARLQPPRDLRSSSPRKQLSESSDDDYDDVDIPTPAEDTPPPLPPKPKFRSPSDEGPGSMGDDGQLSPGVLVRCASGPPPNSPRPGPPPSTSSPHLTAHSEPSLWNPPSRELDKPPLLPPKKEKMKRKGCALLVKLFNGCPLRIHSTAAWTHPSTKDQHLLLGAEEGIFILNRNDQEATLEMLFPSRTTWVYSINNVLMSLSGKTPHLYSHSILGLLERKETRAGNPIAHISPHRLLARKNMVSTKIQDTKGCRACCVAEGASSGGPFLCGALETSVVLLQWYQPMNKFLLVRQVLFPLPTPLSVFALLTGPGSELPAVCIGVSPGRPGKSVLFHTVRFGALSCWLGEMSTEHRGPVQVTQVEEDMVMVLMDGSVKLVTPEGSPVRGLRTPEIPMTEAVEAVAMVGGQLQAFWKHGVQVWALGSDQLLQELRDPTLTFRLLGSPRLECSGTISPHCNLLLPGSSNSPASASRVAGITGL
Chain of human kinome (Homo sapiens, UniProt Q96PN8) (Q96PN8 whole entry): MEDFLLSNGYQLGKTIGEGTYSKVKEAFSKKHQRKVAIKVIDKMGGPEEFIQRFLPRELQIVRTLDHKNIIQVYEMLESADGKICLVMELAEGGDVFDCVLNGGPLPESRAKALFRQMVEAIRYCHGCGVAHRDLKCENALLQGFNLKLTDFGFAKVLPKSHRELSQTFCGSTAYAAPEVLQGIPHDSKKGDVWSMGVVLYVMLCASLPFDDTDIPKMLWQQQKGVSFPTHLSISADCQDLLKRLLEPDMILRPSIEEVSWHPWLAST

## COc1cc(F)ccc1-c1cc(Nc2cc(CS(C)(=N)=O)ccn2)ncc1F (centres unmarked) [VIP152]
[1]; PIK3CA(E545A), 100 nM
  remaining binding at 0.1 µM: 71%
[1]; kinase PIK3CA(E545A) (Entrez PIK3CA), compound concentration 1000 nM
  remaining binding at 1 µM: 98%
[2]
  remaining binding at 0.1 µM: 92%
[3]; kinase RPS6KA5(Kin.Dom.1-N-terminal) (Entrez RPS6KA5)
  remaining binding at 1 µM: 100%
[3]; kinase RPS6KA5(Kin.Dom.2-C-terminal) (Entrez RPS6KA5)
  remaining binding at 1 µM: 100%
[4]
  remaining binding at 0.1 µM: 100%
[5]
  remaining binding at 1 µM: 38%
[6]
  remaining binding at 1 µM: 100%
[7]
  remaining binding at 1 µM: 77%
[8]; PHKG2, 100 nM
  remaining binding at 0.1 µM: 100%
[8]; kinase PHKG2 (Entrez PHKG2), compound concentration 1000 nM
  remaining binding at 1 µM: 88%
[9]
  remaining binding at 1 µM: 92%
[10]
  remaining binding at 0.1 µM: 100%
[11]
  remaining binding at 0.1 µM: 91%
[12]
  remaining binding at 0.1 µM: 79%
[13]
  remaining binding at 1 µM: 90%
[14]
  remaining binding at 1 µM: 76%
[15]
  remaining binding at 1 µM: 68%
[16]
  remaining binding at 0.1 µM: 100%
[17]; MYLK4, 100 nM
  remaining binding at 0.1 µM: 100%
[17]; kinase MYLK4 (Entrez MYLK4), compound concentration 1000 nM
  remaining binding at 1 µM: 89%
[18]
  remaining binding at 0.1 µM: 90%
[19]; kinase RSK1(Kin.Dom.1-N-terminal) (Entrez RPS6KA1)
  remaining binding at 1 µM: 95%
[19]; kinase RSK1(Kin.Dom.2-C-terminal) (Entrez RPS6KA1)
  remaining binding at 1 µM: 89%
[20]
  remaining binding at 0.1 µM: 100%
[21]; NLK, 100 nM
  remaining binding at 0.1 µM: 100%
[21]; kinase NLK (Entrez NLK), compound concentration 1000 nM
  remaining binding at 1 µM: 59%
[22]
  remaining binding at 0.1 µM: 100%
[23]
  remaining binding at 0.1 µM: 91%
[24]
  remaining binding at 0.1 µM: 100%
[25]
  remaining binding at 0.1 µM: 100%
[26]
  remaining binding at 0.1 µM: 100%
[27]
  remaining binding at 0.1 µM: 100%
[28]
  remaining binding at 1 µM: 76%
[29]
  remaining binding at 0.1 µM: 100%
